Test results from patent US11684597B2, “Administration of tailored feedstock to increase nitro-containing amphenicol antibiotic susceptibility” (U.S. Army Research Laboratory, priority 2019, dated 2023).

Test system: Clostridium acetobutylicum strain ATCC 824
Experiment: antibiotic sensitivity test (MIC, OD600 in 96-well plate, anaerobic)
Format: cell-based
Details: for MIC (final concentration of chloramphenicol): after 24 h of growth
Procedure: Bacterial culture conditions and strains have been previously published. All strains and cultures were maintained or grown in an atmosphere of 5.0% H2, 5.0% CO2, and 90.0% N2. Clostridium acetobutylicum strain ATCC 824 was obtained from ATCC and cultured using company protocol at 37° C. into Clostridial growth medium or CGM containing 0.75 g KH2PO4, 0.75 g K2HPO4, 1.0 g NaCl, 0.017 g MnSO4.5H2O, 0.70 g MgSO4.7H2O, 0.01 g FeSO4.7H2O, 2.0 g 1-asparagine, 5.0 g yeast extract, 2.0 g (NH4)2SO4, and 0.5% final concentration of desired carbohydrate—D-glucose, D-galacturonic acid, D-gluconic acid—at pH 6.5. Active cultures from initial growth stock were added to potato glucose medium to be maintained and stored as a spore solution. Potato glucose medium or PGM contains per liter of H2O—150 g grated fresh potato, 10 g D-glucose, 0.5 g (NH4)SO4, and 3 g CaCO3. The medium was boiled for 1 hour and strained through gauze before sterilization and use for culture. Spore solution was activated for culturing through a heat shock at 80° C. for 9 minutes. Shocked spore solution was added to CGM containing the feed stock of choice and grown to late log of 0.8 at optical density of 600 nm (OD600) at 37° C. Theses cultures were then used to perform antibiotic sensitivity experiments.
The protocol for antibiotic sensitivity test was performed as follows in anaerobic conditions: 200 μL of CGM medium containing either 0.5% D-galacturonate or D-glucose was aliquoted into a sterile Costar® 96-well polystyrene flat bottom plate in triplicate per test condition. Chloroamphenicol was dissolved in ethanol at different concentrations. Each chloroamphenicol concentration was added to each well in triplicate and considered a test condition. Test conditions included addition of 1 μL of ethanol, 1 of sterile water, 1 μL 0.1 mg mL^−1, 1 μL 0.25 mg mL^−1, 1 μL 0.5 mg mL^−1, 1 μL 1 mg mL^−1, 1 μL 2.5 mg mL^−1, 1 μL 5 mg mL^−1, 1 μL 10 mg mL^−1, 1 μL 20 mg mL^−1, and 1 μL 10 mg mL^−1. […] The optical density of the cultures in the wells were measured at 600 nm via a commercially available plate reader. […]

## O=C(N[C@H](CO)[C@H](O)c1ccc([N+](=O)[O-])cc1)C(Cl)Cl [chloramphenicol]
C. acetobutylicum grown in CGM with 0.5% D-galacturonate (galacturonic acid) as feedstock
  MIC (final concentration of chloramphenicol): 2.4 µg/mL
C. acetobutylicum grown in CGM with 0.5% D-glucose as feedstock
  MIC (final concentration of chloramphenicol): 23.7 µg/mL
C. acetobutylicum, in vitro, galacturonate vs glucose
  increase of antibiotic susceptibility with oxidized feed stock compared to glucose as feed stock: 10 fold
